Results: ChEMBL document CHEMBL5303304, “EUbOPEN Chemogenomics Library - IncuCyte” (2023)

Tests used:
Format in all cases: toxicity, cell-based
[1] = tested on: Fibroblast; experiment: Incucyte cell viability with human fibroblast; settings: 10 µM, compound concentration 10 uM
[2] = tested on: HEK-293T; experiment: Incucyte cell viability with HEK293T; settings: human, 10 µM, compound concentration 10 uM
[3] = tested on: U2OS; experiment: Incucyte cell viability with U2OS; settings: human, 10 µM, compound concentration 10 uM
Further: unitless GR value; below 1 slowed growth and below 0 cell loss.

Q: What does the source list for `NC(=O)c1ccc(-c2nc(-c3ccc4c(c3)OCCO4)c(-c3ccccn3)[nH]2)cc1`?
A: Growth Rate ([1]; 0 h, replicate number 1): -1; Growth Rate ([1]; 0 h, replicate number 2): -0.85; Growth Rate ([1]; 6 h, replicate number 2): 0.41; Growth Rate ([1]; 12 h, replicate number 1): 0.77; Growth Rate ([1]; 12 h, replicate number 2): 0.45; Growth Rate ([1]; 18 h, replicate number 2): 0.63; Growth Rate ([1]; 24 h, replicate number 2): 0.74; Growth Rate ([2]; 6 h, replicate number 1): 0.37; Growth Rate ([2]; 6 h, replicate number 2): 0.65; Growth Rate ([2]; 12 h, replicate number 1): 0.76; Growth Rate ([2]; 12 h, replicate number 2): 0.81; Growth Rate ([2]; 18 h, replicate number 1): 0.8; Growth Rate ([2]; 18 h, replicate number 2): 0.74; Growth Rate ([2]; 24 h, replicate number 1): 0.79; Growth Rate ([2]; 24 h, replicate number 2): 0.86; Growth Rate ([3]; 6 h, replicate number 1): 0.21; Growth Rate ([3]; 12 h, replicate number 1): 0.58; Growth Rate ([3]; 12 h, replicate number 2): 0.94; Growth Rate ([3]; 18 h, replicate number 1): 0.55; Growth Rate ([3]; 18 h, replicate number 2): 0.86; Growth Rate ([3]; 24 h, replicate number 1): 0.5; Growth Rate ([3]; 24 h, replicate number 2): 0.75

Q: `O=C1c2c(Br)c(Br)c(Br)c(Br)c2C(=O)N1c1ncc[nH]1` was tested. Which “Growth Rate” value ([1]; 0 h, replicate number 1) did it give?
A: 0.94

Q: And the “Growth Rate” value ([1]; 6 h, replicate number 2)?
A: -0.34

Q: And the “Growth Rate” value ([1]; 12 h, replicate number 1)?
A: -0.93

Q: And the “Growth Rate” value ([1]; 12 h, replicate number 2)?
A: 0.46

Q: What about the “Growth Rate” value ([1]; 18 h, replicate number 1) of the same compound?
A: 0.49

Q: And the “Growth Rate” value ([1]; 18 h, replicate number 2)?
A: 1

Q: What about the “Growth Rate” value ([2]; 0 h, replicate number 1) of the same compound?
A: 0.6

Q: And the “Growth Rate” value ([2]; 0 h, replicate number 2)?
A: 0.63

Q: And the “Growth Rate” value ([2]; 6 h, replicate number 2)?
A: 0.37

Q: What about the “Growth Rate” value ([2]; 12 h, replicate number 2) of the same compound?
A: 0.57

Q: What about the “Growth Rate” value ([2]; 18 h, replicate number 2) of the same compound?
A: 0.74

Q: What about the “Growth Rate” value ([2]; 24 h, replicate number 2) of the same compound?
A: 0.78

Q: What about the “Growth Rate” value ([3]; 0 h, replicate number 1) of the same compound?
A: 0.58

Q: What about the “Growth Rate” value ([3]; 6 h, replicate number 1) of the same compound?
A: 0.7

Q: What about the “Growth Rate” value ([3]; 6 h, replicate number 2) of the same compound?
A: 0.25

Q: What about the “Growth Rate” value ([3]; 12 h, replicate number 2) of the same compound?
A: 0.88

Q: And the “Growth Rate” value ([3]; 18 h, replicate number 2)?
A: 0.8

Q: And the “Growth Rate” value ([3]; 24 h, replicate number 2)?
A: 0.85

Q: What does the source list for `Cc1c(NC(=O)c2ccc(C(C)(C)C)cc2)cccc1-c1cn(C)c(=O)c(Nc2ccc(C(=O)N3CCOCC3)cc2)n1`?
A: Growth Rate ([1]; 6 h, replicate number 2): -0.1; Growth Rate ([1]; 12 h, replicate number 2): 0.63; Growth Rate ([1]; 18 h, replicate number 2): 0.72; Growth Rate ([2]; 6 h, replicate number 1): 0.48; Growth Rate ([2]; 12 h, replicate number 1): 0.38; Growth Rate ([2]; 12 h, replicate number 2): 0.51; Growth Rate ([2]; 18 h, replicate number 1): 0.53; Growth Rate ([2]; 18 h, replicate number 2): 0.35; Growth Rate ([2]; 24 h, replicate number 1): 0.63; Growth Rate ([2]; 24 h, replicate number 2): 0.48; Growth Rate ([3]; 24 h, replicate number 1): 0.97

Q: How did the “Growth Rate” value ([1]; 0 h, replicate number 1) turn out when `COc1cc(F)ccc1-c1ncnc(Nc2cccc(C[S@](C)(=N)=O)c2)n1` [ATUVECICLIB] was run?
A: -0.58

Q: What about the “Growth Rate” value ([1]; 6 h, replicate number 1) of the same compound?
A: -0.11

Q: What about the “Growth Rate” value ([1]; 6 h, replicate number 2) of the same compound?
A: -0.07

Q: What about the “Growth Rate” value ([1]; 12 h, replicate number 1) of the same compound?
A: -0.04

Q: What about the “Growth Rate” value ([1]; 12 h, replicate number 2) of the same compound?
A: -0.33

Q: What about the “Growth Rate” value ([1]; 18 h, replicate number 1) of the same compound?
A: -0.01

Q: What about the “Growth Rate” value ([1]; 18 h, replicate number 2) of the same compound?
A: -0.2

Q: What about the “Growth Rate” value ([1]; 24 h, replicate number 1) of the same compound?
A: 0.09

Q: And the “Growth Rate” value ([1]; 24 h, replicate number 2)?
A: -0.14

Q: What about the “Growth Rate” value ([2]; 6 h, replicate number 1) of the same compound?
A: -0.48

Q: And the “Growth Rate” value ([2]; 6 h, replicate number 2)?
A: -0.61

Q: And the “Growth Rate” value ([2]; 12 h, replicate number 1)?
A: -0.37

Q: And the “Growth Rate” value ([2]; 12 h, replicate number 2)?
A: -0.56

Q: What about the “Growth Rate” value ([2]; 18 h, replicate number 1) of the same compound?
A: -0.26

Q: And the “Growth Rate” value ([2]; 18 h, replicate number 2)?
A: -0.44

Q: And the “Growth Rate” value ([2]; 24 h, replicate number 1)?
A: -0.25

Q: What about the “Growth Rate” value ([2]; 24 h, replicate number 2) of the same compound?
A: -0.36

Q: And the “Growth Rate” value ([3]; 0 h, replicate number 2)?
A: 0.53

Q: And the “Growth Rate” value ([3]; 6 h, replicate number 1)?
A: 0.72

Q: And the “Growth Rate” value ([3]; 6 h, replicate number 2)?
A: 0.22

Q: And the “Growth Rate” value ([3]; 12 h, replicate number 1)?
A: 0.33

Q: What about the “Growth Rate” value ([3]; 12 h, replicate number 2) of the same compound?
A: 0.18

Q: What about the “Growth Rate” value ([3]; 18 h, replicate number 1) of the same compound?
A: 0.11

Q: And the “Growth Rate” value ([3]; 18 h, replicate number 2)?
A: 0.07

Q: What about the “Growth Rate” value ([3]; 24 h, replicate number 1) of the same compound?
A: 0.03

Q: What about the “Growth Rate” value ([3]; 24 h, replicate number 2) of the same compound?
A: -0.05

Q: What does the source list for `C/C(=C\C(=O)Nc1ccccc1C(=O)[O-])c1ccc2ccccc2c1.[Na+]`?
A: Growth Rate ([1]; 0 h, replicate number 2): -0.44; Growth Rate ([1]; 6 h, replicate number 1): 0.57; Growth Rate ([1]; 6 h, replicate number 2): -0.21; Growth Rate ([1]; 12 h, replicate number 2): 0.94; Growth Rate ([1]; 18 h, replicate number 1): 0.97; Growth Rate ([1]; 24 h, replicate number 1): 0.83; Growth Rate ([2]; 0 h, replicate number 1): 0.79; Growth Rate ([2]; 0 h, replicate number 2): 0.69; Growth Rate ([3]; 0 h, replicate number 1): 0.38; Growth Rate ([3]; 6 h, replicate number 1): 0.69; Growth Rate ([3]; 12 h, replicate number 1): 0.95; Growth Rate ([3]; 18 h, replicate number 1): 0.83; Growth Rate ([3]; 24 h, replicate number 1): 0.94

Q: What does the source list for `COc1ccc(-n2nc3c4ccccc4[nH]cc-3c2=O)cc1`?
A: Growth Rate ([1]; 0 h, replicate number 2): 0.74; Growth Rate ([1]; 6 h, replicate number 1): -0.1; Growth Rate ([1]; 12 h, replicate number 2): 0.81; Growth Rate ([1]; 18 h, replicate number 2): 0.91; Growth Rate ([2]; 0 h, replicate number 1): 0.6; Growth Rate ([2]; 6 h, replicate number 2): 0.53; Growth Rate ([2]; 12 h, replicate number 2): 1; Growth Rate ([3]; 0 h, replicate number 1): -0.37; Growth Rate ([3]; 0 h, replicate number 2): -0.98; Growth Rate ([3]; 6 h, replicate number 1): 0.7; Growth Rate ([3]; 12 h, replicate number 1): 0.89

Q: How did the “Growth Rate” value ([1]; 0 h, replicate number 2) turn out when `CCc1c(-c2ccc3[nH]ncc3c2)cnc(N)c1-c1ccc(O)cc1` was run?
A: -0.31

Q: What about the “Growth Rate” value ([1]; 6 h, replicate number 1) of the same compound?
A: 0.91

Q: What about the “Growth Rate” value ([2]; 0 h, replicate number 1) of the same compound?
A: -0.12

Q: And the “Growth Rate” value ([2]; 6 h, replicate number 1)?
A: 0.85

Q: What about the “Growth Rate” value ([2]; 6 h, replicate number 2) of the same compound?
A: 0.91

Q: What about the “Growth Rate” value ([2]; 12 h, replicate number 1) of the same compound?
A: 0.8

Q: What about the “Growth Rate” value ([2]; 12 h, replicate number 2) of the same compound?
A: 0.9

Q: And the “Growth Rate” value ([2]; 18 h, replicate number 2)?
A: 0.91

Q: What about the “Growth Rate” value ([2]; 24 h, replicate number 1) of the same compound?
A: 0.99

Q: What about the “Growth Rate” value ([2]; 24 h, replicate number 2) of the same compound?
A: 0.88

Q: And the “Growth Rate” value ([3]; 0 h, replicate number 2)?
A: -0.93

Q: And the “Growth Rate” value ([3]; 6 h, replicate number 2)?
A: 0.84

Q: What about the “Growth Rate” value ([3]; 24 h, replicate number 1) of the same compound?
A: 0.92

Q: Which results are given for `CN(C(=O)c1ccccc1)c1ccc2c(c1)nc(NC(=O)c1ccc(Br)s1)n2CCC(N)=O`?
A: Growth Rate ([1]; 0 h, replicate number 1): -0.8; Growth Rate ([1]; 0 h, replicate number 2): -0.39; Growth Rate ([1]; 24 h, replicate number 1): 0.96; Growth Rate ([2]; 6 h, replicate number 1): 0.09; Growth Rate ([2]; 6 h, replicate number 2): 0.04; Growth Rate ([2]; 12 h, replicate number 1): 0.33; Growth Rate ([2]; 12 h, replicate number 2): 0.26; Growth Rate ([2]; 18 h, replicate number 1): 0.34; Growth Rate ([2]; 18 h, replicate number 2): 0.3; Growth Rate ([2]; 24 h, replicate number 1): 0.4; Growth Rate ([2]; 24 h, replicate number 2): 0.34; Growth Rate ([3]; 0 h, replicate number 1): -1; Growth Rate ([3]; 6 h, replicate number 2): 0.89; Growth Rate ([3]; 12 h, replicate number 2): 0.72; Growth Rate ([3]; 18 h, replicate number 1): 0.9; Growth Rate ([3]; 18 h, replicate number 2): 0.71; Growth Rate ([3]; 24 h, replicate number 2): 0.68
